Active and inactive are the calls of the source. No cut-off for these calls is given here.

In assay [1] the target is Human immunodeficiency virus type 1 integrase (Human immunodeficiency virus 1) (UniProt Q7ZJM1). The assay can be described thus: Activity against HIV-1 integrase in range 5-20 uM compared to integric acid.
Assay [2] concerns the target Human immunodeficiency virus type 1 integrase (Human immunodeficiency virus 1, UniProt Q7ZJM1). Nature of the assay: Inhibitory activity against HIV-1 integrase.
Assay [3] concerns the target Human immunodeficiency virus type 1 integrase (Human immunodeficiency virus 1) (UniProt Q7ZJM1). The assay can be described thus: Compound was tested for strand transfer activity against HIV-1 integrase at 50 uM; weak inhibition.

Chain of Human immunodeficiency virus type 1 integrase (Q7ZJM1 whole entry): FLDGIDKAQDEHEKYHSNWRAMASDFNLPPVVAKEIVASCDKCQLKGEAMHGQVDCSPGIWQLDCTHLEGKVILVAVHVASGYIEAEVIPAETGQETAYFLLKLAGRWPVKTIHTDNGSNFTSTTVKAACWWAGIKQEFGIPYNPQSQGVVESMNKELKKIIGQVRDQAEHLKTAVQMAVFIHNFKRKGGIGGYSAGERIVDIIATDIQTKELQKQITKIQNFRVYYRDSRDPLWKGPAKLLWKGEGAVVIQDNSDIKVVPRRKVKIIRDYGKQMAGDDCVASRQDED
Chain of Human immunodeficiency virus type 1 integrase (Human immunodeficiency virus 1) (Q7ZJM1 as listed by the source): as the sequence (Q7ZJM1 whole entry) above

With `C=C(C=O)[C@@H]1C[C@@]2(C)C(=CC1=O)[C@H](OC(=O)/C(C)=C/C(C)CCCC)CC[C@@H]2C(=O)NCCNC(=O)[C@H]1CC[C@@H](OC(=O)/C(C)=C/C(C)CCCC)C2=CC(=O)[C@H](C(=C)C=O)C[C@@]21C` (stereo not given in full), in assay [1], the outcome was Active. Further, the midpoint of inhibition in assay [2], the IC50, lay at 10 µM.

For `C=C(C=O)[C@@H]1C[C@@]2(C)C(=CC1=O)[C@H](OC(=O)/C(C)=C/C(C)CCCC)CC[C@@H]2C(=O)O` (stereo not given in full), in assay [1], the result was Active. Half-maximal inhibition in assay [2] (IC50) required 3 µM.

As to `CCCCC(C)/C=C(\C)C(=O)O[C@@H]1CC[C@H](C(=O)O)[C@@]2(C)C[C@@H]([C@H](C)C=O)C(=O)C=C12` (stereo not given in full), in assay [1], the result was Active. In assay [3], the Activity result is “weak inhibition”. The compound also displayed an IC50 in assay [2] of 11 µM.

In the case of `C=C(C=O)[C@@H]1C[C@@]2(C)C(=CC1=O)[C@H](OC(=O)/C(C)=C/C(C)CCCC)CC[C@@H]2C(=O)N1CCN(C(=O)[C@H]2CC[C@@H](OC(=O)/C(C)=C/C(C)CCCC)C3=CC(=O)[C@H](C(=C)C=O)C[C@@]32C)CC1` (stereo not given in full), the outcome in assay [1] was Active. The compound further came in with an IC50 in assay [2] of 24 µM.

In assay [2], `CCCCC(C)/C=C(\C)C(=O)O[C@@H]1CC[C@H](C(=O)O)[C@@]2(C)CC3C(C)C(O)OC3(O)C=C12` (stereo not given in full) yielded an IC50 of 40 µM.

Regarding `C=CC(=C)[C@@H]1C[C@@]2(C)C(=CC1=O)[C@H](OC(=O)/C(C)=C/C(C)CCCC)CC[C@@H]2C(=O)O` (stereo not given in full), half-maximal inhibition in assay [2] (IC50) required 30 µM.

Take `CCCCC(C)/C=C(\C)C(=O)O[C@@H]1CC[C@H](C(=O)O)[C@@]2(C)C[C@@H](C(C)C(O)O)C(=O)C=C12` (stereo not given in full): the IC50 in assay [2] came out at 40 µM.

Take `C=C(C=O)[C@@H]1C[C@@]2(C)C(=CC1=O)[C@H](OC(=O)/C(C)=C/C(C)CCCC)CC[C@@H]2C(=O)ON[C@@H](C(=O)OC)c1ccccc1` (stereo not given in full): the result in assay [1] was Active. In assay [2], the half-inhibitory concentration (IC50) came out at 5 µM.

On to `C=C/C(C)=C1\C[C@@]2(C)C(=CC1=O)[C@H](OC(=O)/C(C)=C/C(C)CCCC)CC[C@@H]2C(=O)O` (stereo not given in full), for which, in assay [2], the IC50 turned out to be 75 µM.

Consider `CC1=C2C[C@@]3(C)C(=CCC[C@@H]3C(=O)O)C=C2OC1=O`, for which the IC50 in assay [2] was above 100 µM.

`CCCCC(C)/C=C(\C)C(=O)O[C@@H]1CC[C@H](C(=O)O)[C@@]2(C)CC([C@@H](C)C=O)C(=O)C=C12` (stereo not given in full): in assay [1], the result was Active. Besides, the Activity entry in assay [3] is “weak inhibition”. This compound registered an IC50 in assay [2] of 11 µM.

With `C=C(C=O)[C@@H]1C[C@@]2(C)C(=CC1=O)[C@H](OC(=O)/C(C)=C/C(C)CCCC)CC[C@@H]2C(=O)O/C(=N\C1CCCCC1)NC1CCCCC1` (stereo not given in full), the IC50 in assay [2] is 88 µM.

As for `CCCCC(C)/C=C(\C)C(=O)O[C@@H]1CC[C@H](C(=O)O)[C@@]2(C)C[C@H]3[C@@H](C)CO[C@]3(O)C[C@H]12` (stereo not given in full), inhibition in assay [2] was half-maximal at 45 µM (IC50).

On to `C=C(C=O)[C@@H]1C[C@@]2(C)C(=CC1=O)[C@H](OC(=O)/C(C)=C/C(C)CCCC)CC[C@@H]2C(=O)N[C@@H](CC(C)C)C(=O)OC` (stereo not given in full), for which, in assay [1], the outcome was Active. The IC50 in assay [2] came to 3 µM.

In the case of `C=C(C=O)[C@@H]1C[C@@]2(C)C(=CC1=O)[C@H](OC(=O)/C(C)=C/C(C)CCCC)CC[C@@H]2C(=O)OP(=O)(OCC)OCC` (stereo not given in full), the midpoint of inhibition in assay [2], the IC50, lay at 81 µM.

In assay [2], `CCCCC(C)/C=C(\C)C(=O)O[C@@H]1CC[C@H](C(=O)O)[C@@]2(C)C[C@H]3[C@H](C)CO[C@]3(O)C[C@H]12` (stereo not given in full) showed an IC50 of 100 µM.

Take `CCCCC(C)/C=C(\C)C(=O)O` (stereo not given): the outcome in assay [1] was Active. Also, the IC50 in assay [2] came to 12 µM.

`C=C(CO)[C@@H]1C[C@@]2(C)C(=C[C@H]1O)[C@H](OC(=O)/C(C)=C/C(C)CCCC)CC[C@@H]2C(=O)O` (stereo not given in full) had an IC50 in assay [2] of 73 µM.

In the case of `C=C(C=O)[C@@H]1C[C@@]2(C)C(=CC1=O)[C@H](OC(=O)/C(C)=C/C(C)CCCC)CC[C@@H]2C(=O)ON[C@H](C(=O)OC)c1ccccc1` (stereo not given in full), the result in assay [1] was Active. In assay [2], this compound showed an IC50 of 5 µM.

Broadly, the IC50 is the concentration that inhibits the measured activity by half. High values mean weaker potency, low ones greater potency.

(Values after ChEMBL document CHEMBL1133373, “Chemical and enzymatic modifications of integric acid and HIV-1 integrase inhibitory activity” (Bioorg Med Chem Lett, 2000).)
